Measurements reported in publication PMC6298744 (Biochemical pharmacology, 2018).

Experiments:
[1] = Human blood concentrations after ingestion; details: converted from cited ng/ml values
[2] = cited from earlier work
hDAT [3] = target: T1, hDAT (Homo sapiens, UniProt Q01959); details: read-out: affinity of [^125I]RTI-55 binding sites, DAT; HEK-hDAT; cited from earlier work
hNET [4] = target: T2, hNET (Homo sapiens, UniProt P23975); details: read-out: affinity of [^125I]RTI-55 binding sites, NET; HEK-hNET; cited from earlier work
T2 sequence (P23975 whole entry): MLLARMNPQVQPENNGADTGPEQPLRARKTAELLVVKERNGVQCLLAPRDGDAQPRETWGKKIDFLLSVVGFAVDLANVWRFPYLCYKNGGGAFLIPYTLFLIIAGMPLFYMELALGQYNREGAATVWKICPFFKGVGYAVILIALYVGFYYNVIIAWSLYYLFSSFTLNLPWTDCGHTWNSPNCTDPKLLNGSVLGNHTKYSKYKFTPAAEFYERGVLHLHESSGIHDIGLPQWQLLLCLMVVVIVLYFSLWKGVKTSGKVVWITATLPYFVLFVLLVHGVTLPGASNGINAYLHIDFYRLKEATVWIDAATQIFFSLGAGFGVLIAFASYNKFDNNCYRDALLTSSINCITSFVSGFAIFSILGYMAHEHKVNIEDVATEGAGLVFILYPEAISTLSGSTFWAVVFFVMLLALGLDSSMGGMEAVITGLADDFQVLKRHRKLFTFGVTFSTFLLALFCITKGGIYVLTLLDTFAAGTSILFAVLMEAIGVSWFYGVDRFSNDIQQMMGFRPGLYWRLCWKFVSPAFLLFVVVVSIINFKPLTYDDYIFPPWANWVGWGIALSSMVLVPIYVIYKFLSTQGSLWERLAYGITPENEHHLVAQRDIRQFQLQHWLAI

5-HT2B receptor [5] = target: T3, 5-HT2B receptor (Homo sapiens, UniProt P41595); test: 5-HT2B receptor [^3H]5-HT binding
T3 sequence (P41595 whole entry): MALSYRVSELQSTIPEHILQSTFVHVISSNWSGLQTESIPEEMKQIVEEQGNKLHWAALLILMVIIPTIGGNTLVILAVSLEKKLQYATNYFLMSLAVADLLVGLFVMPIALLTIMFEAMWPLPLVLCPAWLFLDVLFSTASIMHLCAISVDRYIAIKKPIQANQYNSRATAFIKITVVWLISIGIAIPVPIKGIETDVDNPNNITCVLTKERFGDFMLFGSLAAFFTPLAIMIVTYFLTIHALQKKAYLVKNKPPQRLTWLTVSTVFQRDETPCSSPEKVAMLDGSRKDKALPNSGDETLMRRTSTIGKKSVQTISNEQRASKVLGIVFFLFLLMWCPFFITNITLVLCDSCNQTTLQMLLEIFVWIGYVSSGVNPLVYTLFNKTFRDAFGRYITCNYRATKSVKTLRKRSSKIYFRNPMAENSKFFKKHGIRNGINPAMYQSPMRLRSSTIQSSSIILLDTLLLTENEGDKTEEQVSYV

5-HT2A receptor [6] = target: T4, 5-HT2A receptor (Homo sapiens, UniProt P28223); test: biochemical; assay type: binding
T4 sequence (P28223 whole entry): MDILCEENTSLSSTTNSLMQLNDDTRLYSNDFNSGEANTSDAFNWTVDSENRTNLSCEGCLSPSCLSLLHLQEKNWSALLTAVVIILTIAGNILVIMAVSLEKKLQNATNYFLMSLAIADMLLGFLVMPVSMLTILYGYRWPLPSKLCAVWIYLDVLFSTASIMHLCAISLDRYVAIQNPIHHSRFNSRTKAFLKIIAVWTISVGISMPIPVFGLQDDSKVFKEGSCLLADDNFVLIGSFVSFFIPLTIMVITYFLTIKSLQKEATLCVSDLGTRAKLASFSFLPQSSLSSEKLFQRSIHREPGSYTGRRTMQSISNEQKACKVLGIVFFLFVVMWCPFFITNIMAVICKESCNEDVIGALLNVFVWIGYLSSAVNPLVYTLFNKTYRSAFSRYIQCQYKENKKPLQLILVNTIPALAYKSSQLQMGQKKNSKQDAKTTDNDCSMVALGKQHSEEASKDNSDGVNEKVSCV

[7] = taken hours after ingestion; cited from earlier work
hNET [8] = target: T2, hNET; test: cell-based
5-HT2C receptor [9] = target: T5, 5-HT2C receptor (Homo sapiens, UniProt P28335); test: cell-based
T5 sequence (P28335 33-458): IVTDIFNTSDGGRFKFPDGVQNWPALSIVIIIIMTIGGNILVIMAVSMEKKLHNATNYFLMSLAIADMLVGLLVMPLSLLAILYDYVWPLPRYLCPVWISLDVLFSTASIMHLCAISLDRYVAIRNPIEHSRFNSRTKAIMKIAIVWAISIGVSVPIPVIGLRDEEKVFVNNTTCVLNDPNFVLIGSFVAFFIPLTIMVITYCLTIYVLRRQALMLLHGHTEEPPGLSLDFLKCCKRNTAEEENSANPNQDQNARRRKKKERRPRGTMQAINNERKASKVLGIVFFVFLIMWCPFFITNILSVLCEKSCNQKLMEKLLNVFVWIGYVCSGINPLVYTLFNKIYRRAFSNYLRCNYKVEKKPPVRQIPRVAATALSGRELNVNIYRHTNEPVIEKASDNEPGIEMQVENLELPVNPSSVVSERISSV

hSERT [10] = target: T6, hSERT (Homo sapiens, UniProt P31645); test: Inhibition of [^125I]RTI-55 binding to hSERT
T6 sequence (P31645 whole entry): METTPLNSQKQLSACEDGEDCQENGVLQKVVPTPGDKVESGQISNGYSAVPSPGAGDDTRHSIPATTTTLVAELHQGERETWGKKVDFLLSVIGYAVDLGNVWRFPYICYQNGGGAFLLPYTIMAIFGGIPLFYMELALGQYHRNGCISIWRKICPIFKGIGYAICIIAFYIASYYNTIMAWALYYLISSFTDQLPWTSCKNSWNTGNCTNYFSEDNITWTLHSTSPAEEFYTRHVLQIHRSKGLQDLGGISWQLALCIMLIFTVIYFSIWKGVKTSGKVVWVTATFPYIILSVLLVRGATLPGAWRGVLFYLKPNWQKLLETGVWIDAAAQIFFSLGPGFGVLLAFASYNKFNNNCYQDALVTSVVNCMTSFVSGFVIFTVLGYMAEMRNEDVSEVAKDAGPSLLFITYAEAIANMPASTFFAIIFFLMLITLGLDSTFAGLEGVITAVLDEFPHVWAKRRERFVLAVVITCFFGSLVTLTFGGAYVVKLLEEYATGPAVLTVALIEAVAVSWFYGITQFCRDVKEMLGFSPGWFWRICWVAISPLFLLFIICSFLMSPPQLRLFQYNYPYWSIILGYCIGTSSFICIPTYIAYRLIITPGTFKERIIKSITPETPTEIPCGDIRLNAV

human 5-HT1A receptor = target: T7, human 5-HT1A receptor (Homo sapiens, UniProt P08908); test: 5-HT1A receptor [^35S]GTPγS binding stimulation; assay type: biochemical
T7 sequence (P08908 1-422): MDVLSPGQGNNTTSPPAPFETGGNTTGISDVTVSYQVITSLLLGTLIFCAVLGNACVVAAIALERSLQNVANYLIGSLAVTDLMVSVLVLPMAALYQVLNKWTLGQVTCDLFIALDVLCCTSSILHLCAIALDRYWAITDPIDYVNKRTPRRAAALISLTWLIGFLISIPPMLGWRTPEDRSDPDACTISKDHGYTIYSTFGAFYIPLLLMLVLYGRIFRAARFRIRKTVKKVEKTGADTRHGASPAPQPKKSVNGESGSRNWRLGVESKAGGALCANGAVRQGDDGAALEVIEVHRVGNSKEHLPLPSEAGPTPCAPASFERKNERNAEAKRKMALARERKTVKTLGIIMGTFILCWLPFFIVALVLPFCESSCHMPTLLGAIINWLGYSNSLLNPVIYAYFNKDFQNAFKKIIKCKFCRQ

5-HT2A receptor [11] = target: T4, 5-HT2A receptor; test: cell-based; assay type: cell-based
hSERT [12] = target: T6, hSERT; test: Inhibition of [^3H]5-HT uptake by HEK-hSERT cells; assay type: cell-based
5-HT2B receptor [13] = target: T3, 5-HT2B receptor; test: 5-HT2B receptor inositol monophosphate; assay type: cell-based
hSERT [14] = target: T6, hSERT; test: Release of preloaded [^3H]5-HT from HEK-hSERT cells; assay type: cell-based
hDAT [15] = target: T1, hDAT; test: Inhibition of [^3H]DA uptake by HEK-hDAT cells; assay type: cell-based
hNET [16] = target: T2, hNET; test: Release of preloaded [^3H]NE from HEK-hNET cells; assay type: cell-based
hDAT [17] = target: T1, hDAT; test: Inhibition of [^125I]RTI-55 binding to hDAT
hNET [18] = target: T2, hNET; test: biochemical; assay type: binding
hDAT [19] = target: T1, hDAT; test: Release of preloaded [^3H]DA from HEK-hDAT cells; assay type: cell-based
5-HT2C receptor [20] = target: T5, 5-HT2C receptor; details: read-out: affinity of [^125I]DOI binding sites, h5-HT2C; HEK-5-HT2C; radioligand affinity

T1 sequence (Q01959 whole entry): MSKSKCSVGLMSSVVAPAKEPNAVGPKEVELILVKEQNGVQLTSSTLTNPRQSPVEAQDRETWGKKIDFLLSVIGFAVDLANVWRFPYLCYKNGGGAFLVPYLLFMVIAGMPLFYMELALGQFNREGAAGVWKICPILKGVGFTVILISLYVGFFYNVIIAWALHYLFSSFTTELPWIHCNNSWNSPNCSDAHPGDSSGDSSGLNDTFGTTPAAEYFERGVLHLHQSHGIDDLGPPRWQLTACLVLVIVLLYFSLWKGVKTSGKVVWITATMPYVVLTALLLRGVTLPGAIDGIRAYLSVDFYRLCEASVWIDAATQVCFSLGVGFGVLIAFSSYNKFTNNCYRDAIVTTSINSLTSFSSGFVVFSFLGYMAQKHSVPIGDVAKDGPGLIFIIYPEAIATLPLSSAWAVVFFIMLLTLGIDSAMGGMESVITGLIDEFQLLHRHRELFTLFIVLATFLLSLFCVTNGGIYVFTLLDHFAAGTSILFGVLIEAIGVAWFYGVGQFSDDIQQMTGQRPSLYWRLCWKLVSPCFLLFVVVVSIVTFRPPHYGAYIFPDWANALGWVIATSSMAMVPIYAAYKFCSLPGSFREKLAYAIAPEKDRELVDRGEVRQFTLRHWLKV

## COc1cc(CCNCc2ccccc2OC)c(OC)cc1I [25I-NBOMe]
[1]
  blood concentration (molar): ~ 8 nM
[2]
  Postmortem brain tissue concentration: 2.54 ng/g
  Postmortem peripheral blood concentration: 0.405 ng/mL

## COC(=O)[C@H]1[C@@H](c2ccc(I)cc2)CC2CC[C@H]1N2C [[^125I]RTI-55, [^125I]methyl (1R,2S,3S)-3-(4-iodophenyl)-8-methyl-8-azabicyclo[3.2.1]octane-2-carboxylate]
hDAT [3]
  Kd: 1.83 nM
hNET [4]
  Kd: 12.1 nM

## COc1ccc(OC)c(CCNCc2ccccc2OC)c1 [25H-NBOMe, 2-(2,5-dimethoxyphenyl)-N-(2-methoxybenzyl)ethanamine]
5-HT2B receptor [5]
  Ki: 62.9 ± 7.5 nM
5-HT2A receptor [6]
  Ki: 4.9 ± 1.3 nM
5-HT2A receptor [6]; ratio of Ki values
  Selectivity (binding ratios) 5-HT2A : 5-HT1A: 920
  Selectivity (binding ratios) 5-HT2A : 5-HT2B: 13
  Selectivity (binding ratios) 5-HT2A : 5-HT2C: 3.3
[7]
  Human blood concentration: 0.29 ng/mL
hNET [8]
  IC50: 3.65 ± 0.88 µM
5-HT2C receptor [9]
  EC50: 13.8 ± 2.6 nM
5-HT2C receptor [9]; read-out: % maximum stimulation, 5-HT2C stimulation of IP-1 formation
  Emax: 95.5%
hSERT [10]
  Ki: 2220 ± 340 nM
Human 5-HT1A receptor
  EC50: 28.4 ± 8.6 µM
Human 5-HT1A receptor; read-out: % maximum stimulation, 5-HT1A stimulation of [^35S]GTPγS binding
  Emax: 52%
5-HT2A receptor [11]; EC50, 5-HT2A stimulation of IP-1 formation, mean ± sem
  EC50: 40.7 ± 8.1 nM
5-HT2A receptor [11]; ratio of EC50 values
  Selectivity (functional ratios) 5-HT2A: 5-HT1A: 700
  Selectivity (functional ratios) 5-HT2A: 5-HT2B: 11
  Selectivity (functional ratios) 5-HT2A: 5-HT2C: 0.34
5-HT2A receptor [11]; read-out: % maximum stimulation, 5-HT2A stimulation of IP-1 formation
  Emax: 85.9%
[1]
  blood concentration (molar): ~ 0.9 nM
hSERT [12]
  IC50: 2080 ± 310 nM
5-HT2B receptor [13]
  EC50: 463 ± 71 nM
5-HT2B receptor [13]; read-out: % maximum stimulation, 5-HT2B stimulation of IP-1 formation
  Emax: 37.7%
hSERT [14]
  EC50: > 100 µM
hSERT [14]; relative to maximum release induced by METH (0.3–1 mM)
  % maximum release, hSERT [^3H]5-HT: −0.27 ± 0.49%
hDAT [15]
  IC50: > 100 µM
hNET [16]
  EC50: > 66 µM
hNET [16]; relative to maximum release induced by METH (0.3–1 μM)
  % maximum release, hNET [^3H]NE: 21 ± 12%
hDAT [17]
  Ki: 81.4 ± 8.9 µM
hNET [18]
  Ki: 16.3 ± 2.6 µM
hDAT [19]
  EC50: > 100 µM
hDAT [19]; relative to maximum release induced by METH (1–10 μM)
  % maximum release, hDAT [^3H]DA: −0.18 ± 0.26%

## COc1cc(CC(C)N)c(OC)cc1I (stereo not drawn) [[^125I]DOI, [^125I]2,5-dimethoxy-4-iodoamphetamine]
5-HT2C receptor [20]
  Kd: 4.18 nM
